# Results published in patent US20250090614A1, “COMPOSITIONS AND METHODS FOR IMPROVING LUNG FUNCTION” (priority 2023, published 2025).
# Key:
# Type in all cases: in vivo, mouse
# old C57b1/6 mice [1] = test: Minute ventilation by whole-body plethysmography in aged mice; settings: aged C57BL/6 mice, 25 mg/kg p.o. each substance, 90 days
# Procedure: The experiments were performed in old C57b1/6 mice (28-30 weeks). Table 1 discloses the groups of mice used for the experimentation. C57BL/6 mice were bred and naturally aged in a pathogen-free colony. Mice were group-housed six per cage for the treatment regimen and maintained on a 12-hr light-dark schedule with ad libitum access to food and water. All experiments were designed according to the principles of animal use for gerontological research (Miller, R. A., & Nadon, N. L. (2000). Principles of animal use for gerontological research. Journals of Gerontology. Series A, Biological Sciences and Medical Sciences, 55, B117-B123) [table] The above test substances were administered to the mice for a period of 90 days. […] The respiratory muscle function in the study animals was assessed by estimating the Tidal Volume, Minute ventilation, Transdiaphragmatic pressure ([…]) and Respiratory rate. […] In the present study, ventilatory parameters were measured in awake mice during eupnoea (spontaneous breathing of room air) using a whole-body plethysmography system. […] Recordings were taken after 10 min of acclimatization and recorded for one hour. Recorded parameters included tidal volume and minute ventilation Minute ventilation-Minute ventilation is the amount of air inhaled or exhaled from a person's lungs in one minute is an important measurement that's related to tidal volume. […]
# old C57b1/6 mice [2] = test: Transdiaphragmatic pressure (Pdimax) in aged mice; settings: aged C57BL/6 mice, anesthetized, eupnoea, 25 mg/kg p.o. each substance, 90 days
# Procedure: The experiments were performed in old C57b1/6 mice (28-30 weeks). Table 1 discloses the groups of mice used for the experimentation. C57BL/6 mice were bred and naturally aged in a pathogen-free colony. Mice were group-housed six per cage for the treatment regimen and maintained on a 12-hr light-dark schedule with ad libitum access to food and water. All experiments were designed according to the principles of animal use for gerontological research (Miller, R. A., & Nadon, N. L. (2000). Principles of animal use for gerontological research. Journals of Gerontology. Series A, Biological Sciences and Medical Sciences, 55, B117-B123) [table] […] The respiratory muscle function in the study animals was assessed by estimating the Tidal Volume, Minute ventilation, Transdiaphragmatic pressure ([…]) and Respiratory rate. […] Anesthetized mice were monitored continually for temperature, oxygen saturation, and heart rate. Palpebral reflex and pain response were monitored to ensure depth of anaesthesia. […] Spontaneous ventilation was maintained, the abdomen was bound, and Pdi was recorded using solid-state pressure catheters. […] The pressure data were collected using a PowerLab 8/35 data-acquisition system and analyzed using LabChart ([…]., & Mantilla, C. B. (2013). Novel method for transdiaphragmatic pressure measurements in mice. Respiratory Physiology & Neurobiology, 188, 56-59)
# AMPK = AMPK ELISA in lung tissue homogenate of aged mice; settings: aged C57BL/6 mice, 25 mg/kg p.o. each substance, 90 days
# Procedure: The experiments were performed in old C57b1/6 mice (28-30 weeks). Table 1 discloses the groups of mice used for the experimentation. C57BL/6 mice were bred and naturally aged in a pathogen-free colony. Mice were group-housed six per cage for the treatment regimen and maintained on a 12-hr light-dark schedule with ad libitum access to food and water. All experiments were designed according to the principles of animal use for gerontological research (Miller, R. A., & Nadon, N. L. (2000). Principles of animal use for gerontological research. Journals of Gerontology. Series A, Biological Sciences and Medical Sciences, 55, B117-B123)
# The above test substances were administered to the mice for a period of 90 days. Rapamycin was used as a positive control. After 90 days of administration experiments were performed to assess the respiratory muscle function, anatomical changes, cellular senescence and immunological changes.
# Activation of AMPK delays senescence. Abnormal autophagy and aging promote each other, and AMPK is an important regulator of this process. AMPK is involved in the transduction of several aging-related signaling pathways. AMPK intervenes in the development of many age-related diseases.
smiles,measurement,setting,value
O=C(/C=C/c1ccc(O)c(O)c1)O[C@H](Cc1ccc(O)c(O)c1)C(=O)O [Rosmarinic acid],minute ventilation,old C57b1/6 mice [1]; versus old mice control,increase
same,"minute ventilation, comparison between treatment groups",old C57b1/6 mice [1]; Rapamycin 8 mg/kg p.o. positive control,"better improvement than control, and Rapamycin"
same,Transdiaphragmatic pressure (Pdimax),old C57b1/6 mice [2],increase
same,AMPK levels,AMPK,increased
